Earlier results in patent US9546401B2, “Assays and methods for selecting a treatment regimen for a subject with depression” (The General Hospital Corporation, priority 2011, dated 2017).
Like-named read-outs stand apart in the source and are kept apart here.

Key:
depression = settings: parenteral and certain oral forms; cited from earlier work
[1] = test system: adults with major depression; settings: cited from earlier work
[2] = test system: adults with MDD and partial or nonresponse to an SSRI; settings: cited from earlier work

With `C[S+](CC[C@H](N)C(=O)O)C[C@H]1O[C@@H](n2cnc3c(N)ncnc32)[C@H](O)[C@@H]1O` (stereo partly shown) [SAM, S-adenosyl methionine] as the molecule, how does the antidepressant efficacy (depression) read?
Its antidepressant efficacy is “antidepressant efficacy greater than placebo and comparable to that of tricyclic antidepressants”.

With `CNCCC(Oc1ccc(C(F)(F)F)cc1)c1ccccc1` (stereo not shown) [fluoxetine] as the molecule, how does the rate of non-response ([1]; individuals with low or deficient serum folate) read?
Its rate of non-response is 35%.

And the rate of non-response ([1]; serum folate levels in the normal range)?
The rate of non-response was 20%.

Which “Folate levels after treatment” value ([2]; 15-30 mg/day added to SSRIs, 8 weeks, baseline 28+/−19 ng/mL) does the source give for `Nc1nc2c(c(=O)[nH]1)N(C=O)C(CNc1ccc(C(=O)N[C@@H](CCC(=O)O)C(=O)O)cc1)CN2` (stereo partly shown) [folinic acid, Folinic acid] here?
Its value is 301 ± 203 ng/mL.

And the “HAM-D-17 score after treatment” value ([2]; 16 completers, baseline 19.1+/−3.9)?
The value was 12.8+/−7.0.

What about the “remission (HAM-D-17 no greater than 7)” value ([2]; ITT sample) of the same molecule?
The value was 18%.

And the “remission (HAM-D-17 no greater than 7)” value ([2]; completers)?
Its value is 19%.

What about the “response (at least 50% reduction in HAM-D-17)” value ([2]; completers) of the same molecule?
Its value is 31%.

What about the “efficacy as an adjunct in SSRI-refractory depressed individuals with normal folate levels” value ([2]; in vivo) of the same molecule?
The value was “only modestly effective”.

What about the “response (at least 50% reduction in HAM-D-17)” value ([2]; intent-to-treat (ITT) sample) of the same molecule?
The value was 27%.
